Data reported in patent US20210283116A1, “METHODS OF TREATING ACUTE KIDNEY INJURY” (Mitobridge, Inc., priority 2016, published 2021).

Key:
[1] = tested on: rat model of acute kidney injury (ischemia reperfusion injury); experiment: Ischemia reperfusion injury rat model of acute kidney injury, Compound A intravenously; assay type: in vivo, Sprague-Dawley male rats
Procedure: Animals, surgery and dosing: Sprague-Dawley male rats approximately 280-300 g, with ad libitum access to standard feed and water were used in these experiments. Rats (n=8/group) were anesthetized with isoflurane and placed ventrally on a temperature controlled heated surgical platform. A skin incision was made on the dorsal surface, exposing both kidneys through flank incisions. Vascular clips were applied to both renal pedicles and occlusion lasted 45 minutes. After 45 min, the clips were removed, kidneys were monitored for successful reperfusion, and surgical sites were then sutured. The sham group (n=4 rats) was subjected to similar surgical procedures, except that the occluding clamps were not applied. Compound A was formulated as a fresh daily clear solution of the hydrate of the meglumine salt of Compound A (1.5 Molar equivalent of Compound A) in 5% dextrose. Compound A was dosed IV via tail vein at 3 mg/kg, 1 mg/kg or 0.3 mg/kg 4 hours after animals awoke from surgery and sham surgery and IRI control animals were similarly dosed with vehicle.
Blood collection: Twenty-four (24) hours after reperfusion, blood was collected in K2 EDTA tubes by retro-orbital bleeding from all groups under mild isoflurane anesthesia. Plasma was separated by centrifugation at 3000 rpm for 10 minutes at 4° C. Urine collection: all study animal groups were placed in metabolic cages immediately after surgery recovery and urine was collected for 24 or 48 hours. Urine volume was carefully measured and then was centrifuged at 3000 rpm for 10 min at 4° C. to remove sediments. Plasma and urine creatinine were analyzed using a fully automated clinical biochemistry analyzer (Siemens Dimension® Xpand® Plus Integrated Chemistry System). Urinary NGAL was analyzed using a BioPorto ELISA kit. Creatinine clearance was calculated as follows: […]
GraphPad Prism software, Version 6.05 was used for graphing and statistical testing. Creatinine was tested for normal distribution in all groups via a D'Agostino-Pearson omnibus normality test and a Shapiro-Wilk normality test. Statistical significance (p<0.05) is determined by an ordinary One-way ANOVA followed by Dunnett's multiple comparison using the […] as the control group. **p<0.01, ***p<0.001 and ****p<0.0001 vs. IR-Vehicle.

[2] = tested on: rat model of acute kidney injury (ischemia reperfusion injury); experiment: Ischemia reperfusion injury rat model of acute kidney injury, Compound B orally; assay type: in vivo, Sprague-Dawley male rats
Procedure: Animals, surgery and dosing: Sprague-Dawley male rats approximately 280-300 g, with ad libitum access to standard feed and water were used in these experiments. Rats (n=8/group) were anesthetized with isoflurane and placed ventrally on a temperature controlled heated surgical platform. A skin incision was made on the dorsal surface, exposing both kidneys through flank incisions. Vascular clips were applied to both renal pedicles and occlusion lasted 45 minutes. After 45 min, the clips were removed, kidneys were monitored for successful reperfusion, and surgical sites were sutured. The sham group (n=4 rats) was subjected to similar surgical procedures, except that the occluding clamps were not applied. Compound B was formulated as a fresh daily suspension in 0.25% sodium carboxymethyl-cellulose, 0.25% Tween-80 in purified water. Compound B was dosed orally at 30 mg/kg 4 hours after animals awoke from surgery and sham surgery and IRI control animals were similarly dosed with vehicle. Blood collection: Twenty-four (24) hours after reperfusion, blood was collected in K2 EDTA tubes by retro-orbital bleeding from all groups under mild isoflurane anesthesia. Plasma was separated by centrifugation at 3000 rpm for 10 minutes at 4° C. Urine collection: all study animal groups were placed in metabolic cages immediately after surgery recovery and urine was collected for 24 hours. Urine volume was carefully measured and then was centrifuged at 3000 rpm for 10 min at 4° C. to remove sediments. Plasma and urine creatinine were analyzed using a fully automated clinical biochemistry analyzer (Siemens Dimension® Xpand® Plus Integrated Chemistry System). Creatinine clearance was calculated as follows: […]
GraphPad Prism software, Version 6.05 was used for graphing and statistical testing. Data was tested for normal distribution in all groups via a D'Agostino-Pearson omnibus normality test and a Shapiro-Wilk normality test. […] Statistical significance is determined by p<0.05 of IRI-vehicle compared to compound treated groups. **p<0.01 and ***p<0.001 vs. IR-Vehicle. […]

Row | Compound | kidney function (creatinine clearance) ([1]; 0.3 mg/kg, 1 mg/kg or 3 mg/kg IV 4 hours after ischemia, 24 hours after kidney injury, vs. IR-Vehicle) | plasma creatinine ([1]; 0.3 mg/kg, 1 mg/kg or 3 mg/kg IV 4 hours after ischemia, 24 hours after reperfusion, vs. IR-Vehicle) | early kidney injury biomarker NGAL (urinary) ([1]; 0.3 mg/kg, 1 mg/kg or 3 mg/kg IV 4 hours after ischemia, 48 hours after kidney injury, vs. IR-Vehicle) | kidney injury ([1]; dosed IV 4 hours after ischemia, hydrate of meglumine salt in 5% dextrose) | plasma creatinine ([2]; 30 mg/kg orally 4 hours after ischemia, 24 hours after reperfusion, vs. IR-Vehicle) | kidney function (creatinine clearance) ([2]; 30 mg/kg orally 4 hours after ischemia, 24 hours urine collection, vs. IR-Vehicle) | kidney injury ([2]; 30 mg/kg orally, dosed 4 hours after ischemia)
1 | Cc1cnc(-c2ccc(C(F)(F)F)nc2)n1Cc1ccccc1OCCC[C@@H](C)CC(=O)O [Compound A, (R)-3-methyl-6-(2-((5-methyl-2-(6-(trifluoromethyl)pyridin-3-yl)-1H-imidazol-1-yl)methyl)phenoxy)hexanoic acid] | improves kidney function | significantly reduces plasma creatinine | reduces the early kidney injury biomarker NGAL | reduces kidney injury | – | – | –
2 | Cc1cc(SCc2nn(-c3ccc(C(F)(F)F)cc3)nc2C)ccc1OCC(=O)O [Compound B] | – | – | – | – | reduces plasma creatinine | improves kidney function | reduces kidney injury
